Assay results: a melting point compilation (Tetko et al.; mined from patent text by program, amines drawn as free bases though some values may be those of a salt)

In the case of COc1nc(C)cnc1NS(=O)(=O)c1ccccc1-c1ccc(C)cc1, the melting point is reported as 184 to 185 °C.
For Cc1cc2c(c3c(=O)cc(C(=O)O)oc13)OC(C)(C)c1cc(S(=O)(=O)O)ccc1-2, the melting point was 264 to 266 °C.
CCc1c(C(=O)OC(C)C)ncc2[nH]c3ccc4nc(C)sc4c3c12 gave a melting point of 239 to 240 °C.
Compound O=[N+]([O-])c1cccc(C2=NCc3n[nH]nc3-c3ccccc32)c1 has a melting point of 223 to 225 °C.
CCCCCCCCCCCc1nnc2n1-c1ccccc1C(c1ccccc1)=NC2 showed a melting point of 76 to 77 °C.
Work on O=C1COC2CCCc3nc4ccccc4c(c32)N1 (stereo not given) yielded a melting point of 173 to 175 °C.
With COc1ccc(NS(=O)(=O)c2ccc([N+](=O)[O-])cc2[N+](=O)[O-])cc1 the melting point was 115 to 116 °C.
In the case of CNC(=O)CN1CCc2cc(Nc3ncc(Cl)c(Nc4ccccc4C(=O)NC)n3)c(OC)cc2CC1, the melting point is reported as 200 to 216 °C.
With COc1ccccc1-c1nsc2ccc([N+](=O)[O-])cc12 the melting point was 193 to 198 °C.
In the case of OCCn1cc(-c2cc3nccnc3[nH]2)c2ccccc21, the melting point is reported as 272 to 273 °C.
For C=CCn1c(C)nc2c1CC(C(=O)OCC)CC2=O (stereo not given), the melting point was 95 to 97 °C.
Work on CCn1cc(C(=O)O)c(=O)c2cc(Cl)c(N3CCN(Cc4ccccc4)CC3)cc21 yielded a melting point of 228 °C.
Work on COc1cccc2c1N(CCCO)Cn1cc(CO)cc1-2 yielded a melting point of 116 to 118 °C.
With CCOC(=O)c1ccc2c(c1)CC(Cc1cncs1)C2 (stereo not given) the melting point was 47 to 49 °C.
With Nc1cc(-c2ccc(C(F)(F)F)cc2)no1 the melting point was 142 to 144 °C.
CCOC(=O)C=Cc1ccc(C=Cc2csc3ccccc23)s1 gave a melting point of 99 to 100 °C.
With Cc1ccc2c(=O)cc(C(N)=O)oc2c1 the melting point was greater than 300 °C.
With N=c1[nH]c2ccc(Cl)cc2c2nc(-c3ccco3)nn12 the melting point was 131 to 133 °C.
COc1ccc(C(CN2CCN(Cc3ccccc3)C2=O)NC(C)=O)cc1OC (stereo not given) showed a melting point of 156 °C.
In the case of CCOC(=O)C(Cc1ccc(OC)c(OC)c1)NC(=O)c1ccc(OC(C)C)cc1 (stereo not given), the melting point is reported as 126 to 128 °C.
COC(=O)C(=O)c1ccc(S(=O)(=O)CCOc2ccc3ccccc3c2)cc1 showed a melting point of 110 to 111 °C.
With CCOC(=O)c1nc2sc(Br)c([N+](=O)[O-])c2c(=O)[nH]1 the melting point was 284 °C.
O=C(O)c1ccc(COCc2csc3nc(C(=O)NCc4ccccc4)[nH]c(=O)c23)cc1 showed a melting point of 268 to 269 °C.
With COc1ccc(CC2CCC3NC(=O)CCC3C2)cc1 (stereo not given) the melting point was 194 to 196 °C.
Work on CS(=O)(=O)N1CCCn2c(nc3c(N)nc4cccnc4c32)C1 yielded a melting point greater than 250 °C.
For OC1(C2CC2)CSC(=S)N1c1ccccn1 (stereo not given), the melting point was 95 °C.
Cc1nc(-c2ccc(C(F)(F)F)cc2)oc1COc1ccc(OCc2nn[nH]n2)cc1 gave a melting point of 156 °C.
For CNC(=O)c1cccc(NC(=O)Cc2cccc(C)c2)c1, the melting point was 131 °C.
Compound COc1cc(CO)cnc1Cl has a melting point of 60 to 63 °C.
Cn1nc(Br)c([N+](=O)[O-])c1NCc1ccccc1 gave a melting point of 133 °C.
Cc1cccc(Nc2n[nH]c3ncnc(NCc4ccccc4)c23)c1 showed a melting point of 200 to 201 °C.
Compound CN(C(=O)On1ccnn1)c1ccccc1 has a melting point of 105 to 106 °C.
In the case of O=C(N[C@H](CN1CCC(OC2c3ccccc3CCc3ccccc32)CC1)C(=O)O)OCc1ccccc1, the melting point is reported as 128 to 130 °C.
With O=C1c2ccccc2-n2cnc(-c3nc(CCl)cs3)c2[C@@H]2CCN12 the melting point was 248 to 249 °C.
CCOC(=O)N1CCN(c2nc(NC(C)=O)ccc2F)CC1 showed a melting point of 132 to 133 °C.
In the case of COc1ccc2cc(CC(N)=O)ccc2c1, the melting point is reported as 234 to 236 °C.
Work on C=C(c1ccc(OC)cc1)c1ccc(N2CCCC2)cc1 yielded a melting point of 159 to 162 °C.
Compound O=C1CCC(N2C(=O)c3cccc(CNC(=O)c4ccc(C(F)(F)F)c(F)c4)c3C2=O)C(=O)N1 (stereo not given) has a melting point of 165 to 167 °C.
In the case of O=[N+]([O-])c1cc(Cl)c(Cl)cc1-n1cccc1, the melting point is reported as 69.5 to 70.5 °C.
In the case of Cc1nnc2ccc(-c3cccc(Cl)c3)nn12, the melting point is reported as 165 to 167 °C.
Brc1ccc(C(Br)Br)nc1 showed a melting point of 59 to 61 °C.
Compound OC1CSC(Oc2cnc(-c3cncnc3)c(F)c2)C(O)C1O (stereo not given) has a melting point of 192 °C.
Work on O=C(O)c1ccn2c1C(c1cccnc1)CC2 (stereo not given) yielded a melting point of 210 °C.
COc1ccc(Oc2cccc3ncnc(NC(=O)Nc4cccc(OC)c4)c23)cc1 showed a melting point of 209 to 210 °C.
CC(=NO)c1ccnc(Cl)c1 gave a melting point of 143 °C.
With CNc1cc(C)nc2c(S(=O)(=O)c3ccccc3)c(SC)nn12 the melting point was greater than 230 °C.
C=CCc1c(O)cc(C)c(O)c1C gave a melting point of 114 to 116 °C.
Cn1cc(CNC(=O)c2cc(N3CCN(Cc4ccc(F)cc4)C3=O)n[nH]2)cn1 showed a melting point of 244 to 245 °C.
In the case of O=C(O)Cn1cccc(NC(=O)OCc2ccccc2)c1=O, the melting point is reported as 171 to 173 °C.
Compound C=CCOC(=O)c1c(C)nc2c(c1N)c1ccccc1n2C has a melting point of 94 °C.
Work on CC(=O)Nc1nc2c(s1)-c1nc(N3CCOCC3)ncc1C2 yielded a melting point greater than 300 °C.
With CCCN(CCC)c1nc2c(N3CCCCCC3)nc(N3CCCCCC3)cc2c(=O)[nH]1 the melting point was 220 °C.
In the case of Cc1nnc(CO)n1-c1ccc(Cl)cc1C(=O)c1ccccc1, the melting point is reported as 138 to 142 °C.
For COP(=O)(OC)C(O)C(CC1CCCCC1)NC(=O)C(CC(C)C)NC(=O)OC(C)(C)C (stereo not given), the melting point was 157 °C.
Work on CCOC(=O)c1nn(-c2ccccc2Br)c(=O)c2c(N)scc12 yielded a melting point of 203 to 205 °C.
With CC1C(C(=O)O)CC2CC1C2(C)C (single isomer, unassigned; (+)) the melting point was 128 °C.
For O=C(O)c1ccc(C(=O)O)c(Cl)c1, the melting point was 313 °C.
For O=C(Nc1cccc(C(=O)O)c1)NC1C(=O)N(CC(=O)N2CCCC2)c2ccccc2N(C2CCCCC2)C1=O (stereo not given), the melting point was 275 to 276 °C.
N#Cc1cc(C(=O)NNC(=O)c2occc2-c2cccc(OCCc3ccccc3)c2)ccc1O showed a melting point of 131 to 134 °C.
OC1(CNc2ccnc3cc(Cl)ccc23)CCCCC1 showed a melting point of 205 to 207 °C.
Compound COc1cc(C(C)C)c2c(c1)S(=O)(=O)N(COC(=O)c1cccc(O)c1)C2=O has a melting point of 71 to 73 °C.
Work on c1ccc(C2=NN=C(c3ccccc3)NN2)cc1 yielded a melting point of 177 to 178 °C.
CCc1cc(-n2ccc(=O)cc2)c(S(C)(=O)=O)cc1C(=O)N=C(N)N gave a melting point of 261 to 263 °C.
Compound O=C(CC(=O)C(F)(F)F)c1nc2ccc(F)cc2s1 has a melting point of 175 to 178 °C.
In the case of CC12CCC3C(CCC4CCCCC43C)C1CC(F)C2=O (stereo not given), the melting point is reported as 148 to 150 °C.
For CC(C)C(C)Nc1c(NCc2ccc(C#N)cc2)c(=O)c1=O (stereo not given), the melting point was 257 to 260 °C.
OCc1cc(O)ccc1/C=C/c1ccc(O)cc1 gave a melting point of 223 to 225 °C.
In the case of Cc1noc(NS(=O)(=O)c2ccccc2-c2ccc(-c3ncco3)cc2/C=C/c2ccccc2)c1C, the melting point is reported as 102 to 109 °C.
COc1ccc(Cn2c(=O)[nH]c3ncccc3c2=O)cc1 showed a melting point of 272 to 273 °C.
In the case of CCCCCCC(=O)N[C@@H]1N=C(c2ccccc2)c2ccccc2N(C)C1=O, the melting point is reported as 49 to 54 °C.
In the case of CCOC(=O)Cc1c(C)nn(-c2ccccn2)c1-c1ccccc1, the melting point is reported as 89 to 90 °C.
CNC(=O)c1c(I)c(C(=O)O)c(I)c(C(=O)NC)c1I showed a melting point greater than 300 °C.
For Cc1ccc(CC2(O)CCN(CC3=Cc4ccc(O)cc4C3)CC2)cc1, the melting point was 154 to 157 °C.
Compound CNc1nc(C(=O)c2ccc([N+](=O)[O-])c(OC)c2)n2ccccc12 has a melting point of 208 °C.
In the case of O=C1OC(=O)c2cc(C(F)(F)F)ccc21, the melting point is reported as 54 °C.
